Test results as given in US5464861A, “2-thioindoles (selenoindoles) and related disulfides (selenides) which inhibit protein tyrosine kinases and which have antitumor properties” (Warner-Lambert, priority 1993, dated 1995).

What follows are compounds tested against T1, epidermal growth factor receptor tyrosine kinase (Homo sapiens, UniProt P00533) (assay: EGF receptor tyrosine kinase assay (P^32 incorporation in GAT)). Conditions: not given.
T1 construct: A native 170,000 epidermal growth factor receptor-kinase complex from shed plasma membrane vesicles; endogenous in cells
T1 sequence (P00533 25-1210): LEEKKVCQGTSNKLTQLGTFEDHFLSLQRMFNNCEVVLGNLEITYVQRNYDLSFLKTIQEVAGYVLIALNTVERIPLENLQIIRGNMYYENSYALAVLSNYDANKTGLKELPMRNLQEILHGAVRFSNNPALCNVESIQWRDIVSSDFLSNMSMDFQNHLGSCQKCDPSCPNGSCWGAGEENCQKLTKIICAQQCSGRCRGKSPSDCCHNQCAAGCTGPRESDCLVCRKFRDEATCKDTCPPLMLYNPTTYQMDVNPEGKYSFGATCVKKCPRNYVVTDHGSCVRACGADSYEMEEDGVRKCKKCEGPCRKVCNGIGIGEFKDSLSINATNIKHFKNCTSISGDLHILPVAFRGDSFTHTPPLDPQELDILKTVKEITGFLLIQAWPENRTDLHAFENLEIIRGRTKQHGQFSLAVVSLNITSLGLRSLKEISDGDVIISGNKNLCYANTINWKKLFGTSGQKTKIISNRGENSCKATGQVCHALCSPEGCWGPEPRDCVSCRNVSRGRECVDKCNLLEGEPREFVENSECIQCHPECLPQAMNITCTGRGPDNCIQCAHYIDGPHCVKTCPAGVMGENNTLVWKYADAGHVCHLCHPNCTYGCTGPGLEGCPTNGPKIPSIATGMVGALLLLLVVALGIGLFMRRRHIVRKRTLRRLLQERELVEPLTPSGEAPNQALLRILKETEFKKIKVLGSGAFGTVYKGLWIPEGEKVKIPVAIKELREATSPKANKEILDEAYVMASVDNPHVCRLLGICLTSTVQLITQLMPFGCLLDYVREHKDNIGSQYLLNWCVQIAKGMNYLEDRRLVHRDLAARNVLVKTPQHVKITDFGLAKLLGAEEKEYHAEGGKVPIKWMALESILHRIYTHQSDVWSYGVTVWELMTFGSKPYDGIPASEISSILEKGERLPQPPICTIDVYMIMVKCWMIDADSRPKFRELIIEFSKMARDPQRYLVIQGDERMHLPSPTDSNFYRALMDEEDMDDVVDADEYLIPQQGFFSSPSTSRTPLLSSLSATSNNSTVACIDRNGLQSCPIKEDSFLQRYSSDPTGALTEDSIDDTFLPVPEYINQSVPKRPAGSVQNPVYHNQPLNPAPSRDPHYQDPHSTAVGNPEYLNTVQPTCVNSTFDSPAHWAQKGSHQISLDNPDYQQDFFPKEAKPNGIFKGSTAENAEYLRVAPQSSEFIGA
T1 sequence (P01133 971-1023 partner limits assumed): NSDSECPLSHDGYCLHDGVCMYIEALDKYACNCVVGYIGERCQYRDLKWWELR
Assay type: biochemical
Description: At the time of assay, membranes were solubilized in 4% Triton X-100 and glycerol. The reaction is carried out in wells of a 96-well microtiter plate in a total volume of […]. Buffer containing 20 mMHepes (pH 7.4), 15 mMMgCl2, mM MnCl2, and 0.02% BSA followed by […] of membrane protein and 150 ng of epidermal growth factor. The plates are incubated for 10 minutes at room temperature to activate the receptor kinase. […] ATP plus or minus compound are added and incubated 10 minutes at room temperature.
`O=[N+]([O-])CCc1c(SSc2[nH]c3ccccc3c2CC[N+](=O)[O-])[nH]c2ccccc12` [Compound 49, 2,2'-dithiobis[3-(2-nitroethyl)indole]] showed an IC50 of 84.1 µM.

Same assay, conditions: Table 2, EGRF-R; IC50 entries; read-out: IC50 (EGFR TK)
Compound `O=C(O)CC1C(=S)Nc2ccccc21` (stereo not drawn) [Compound 1, 2-(2-thioxo-3-indolinyl)acetic acid] has an IC50 of 14.9 µM.
In the case of `CN1C(=S)C(CCC(=O)O)c2ccccc21` (stereo not drawn) [Compound 8, 3-(1-methyl-2-thioxo-3-indolinyl)propanoic acid], the IC50 is reported as 8.5 µM.
`NC(=O)CCC1C(=S)Nc2ccccc21` (stereo not drawn) [Compound 14, 3-(2-thioxo-3-indolinyl)propanamide] showed an IC50 of 22 µM.
Compound `O=C(O)CCCC1C(=S)Nc2ccccc21` (stereo not drawn) [Compound 15, 4-(2-thioxo-3-indolinyl)butanoic acid] has an IC50 of 6.8 µM.
`CN1C(=S)C(CCCC(=O)O)c2ccccc21` (stereo not drawn) [Compound 16, 4-(1-methyl-2-thioxo-3-indolyl) butanoic acid] showed an IC50 of 23 µM.
Work on `CN1C(=S)C(C(=O)Nc2ccccc2)c2cc(Cl)ccc21` (stereo not drawn) [Compound 20, N-phenyl 5-chloro-1-methyl-2-thioxoindole-3-carboxamide] yielded an IC50 of 9 µM.
For `CN1C(=S)C(C(=O)c2ccc(C(=O)O)cc2)c2ccccc21` (stereo not drawn) [Compound 25, 3-(4'-carboxybenzoyl)-1-methyl-2-indolinethione], the IC50 was 8.7 µM.
`Cn1c(SSc2c(CCC(=O)O)c3ccccc3n2C)c(CCC(=O)O)c2ccccc21` [Compound 37] was tested, and the IC50 was 3.3 µM.
`Cc1ccc2c(CCC(=O)O)c(SSc3[nH]c4cc(C)ccc4c3CCC(=O)O)[nH]c2c1` [Compound 43, bis[methylindolyl-3-propanoate-(2)]disulfide] showed an IC50 of 2.9 µM.
`Cc1cccc2c(CCC(=O)O)c(SSc3[nH]c4c(C)cccc4c3CCC(=O)O)[nH]c12` [Compound 45, bis[7-methylindolyl-3-propanoic acid-(2)] disulfide] showed an IC50 of 1.6 µM.
Work on `N#CCCc1c(SSc2[nH]c3ccccc3c2CCC#N)[nH]c2ccccc12` [Compound 48, 2,2'-dithiobis[3-indolylpropionitrile]] yielded an IC50 of 35.5 µM.
Compound `CNC(=O)CCc1c(SSc2[nH]c3ccccc3c2CCC(=O)NC)[nH]c2ccccc12` [Compound 51] has an IC50 of 7 µM.
`CN(C)C(=O)CCc1c(SSc2[nH]c3ccccc3c2CCC(=O)N(C)C)[nH]c2ccccc12` [Compound 53] was tested, and the IC50 was 4.2 µM.

Same assay, conditions: at 100 μM; EGRF-R; read-out: % Inhibition at 100 μM (EGFR TK)
`CC(=O)NC(Cc1c(SSc2[nH]c3ccccc3c2CC(NC(C)=O)C(=O)NCc2ccccc2)[nH]c2ccccc12)C(=O)NCc1ccccc1` (racemic) [Compound 60] gave an inhibition at 100 µM of 53%.
`CN1C(=S)C(CC(=O)O)c2ccccc21` (stereo not drawn) [Compound 2, 2-(1-methyl-2-thioxo-3-indolinyl)acetic acid] gave an inhibition at 100 µM of 26%.
Work on `COC(=O)CC1C(=S)N(C)c2ccccc21` (stereo not drawn) [Compound 4, methyl 2-(1-methyl-2-thioxo-3-indolinyl)acetate] yielded an inhibition at 100 µM of 27%.
`CCOC(=O)CC1C(=S)N(C)c2ccccc21` (stereo not drawn) [Compound 5, ethyl 2-(1-methyl-2-thioxo-3-indolinyl)acetate] was tested, and the inhibition at 100 µM was 4%.
`COC(=O)CCC1C(=S)N(C)c2ccccc21` (stereo not drawn) [Compound 11, methyl 3-(1-methyl-2-thioxo-3-indolinyl)propanoate] was tested, and the inhibition at 100 µM was 24%.
`CCOC(=O)CCC1C(=S)N(C)c2ccccc21` (stereo not drawn) [Compound 12, ethyl 3-(1-methyl-2-thioxo-3-indolinyl)propanoate] showed an inhibition at 100 µM of 3%.
`O=C(CCC1C(=S)Nc2ccccc21)NCc1ccccc1` (stereo not drawn) [Compound 13, N-benzyl 3-(2-thioxo-3-indolinyl) propanamide] was tested, and the inhibition at 100 µM was 43%.
`COC(=O)CCCC1C(=S)Nc2ccccc21` (stereo not drawn) [Compound 17, methyl 4-(2-thioxo-3-indolinyl)butanoate] showed an inhibition at 100 µM of 12.5%.
`Cn1c(S)c(C(=O)Nc2ccccc2)c2cccnc21` [Compound 19, N-phenyl (1-methyl-7-aza-2-thioxo-3-indolinyl)carboxamide] was tested, and the inhibition at 100 µM was 10%.
Work on `CCOC(=O)CCc1c(SSc2[nH]c3ccc(C)cc3c2CCC(=O)OCC)[nH]c2ccc(C)cc12` [Compound 42, bis[ethyl 5-methylindolyl-3-propanoate-(2)]disulfide] yielded an inhibition at 100 µM of 26%.
